The source of these data is EP0617046A1, “Nucleoside derivatives and antiherpes composition” (NIPPON CHEMIPHAR CO., LTD., priority 1993, dated 1994).

≈ marks a conversion by molar mass, not a printed value.

Data set [1] has as its system cytomegalovirus (CMV). The settings on record: CMV having no thymidine kinase (TK); Clinic and Study, vol. 70, No.8 (1993); cited from earlier work.
Data set [2] deals with herpes simplex virus (HSV) type 2. The conditions noted are these: cited from earlier work.
Data set [3] has as its system herpes simplex virus (HSV) type 1. The conditions noted are these: cited from earlier work.
Data set [4] relates to TK⁻VZV YS/R strain. As to the kind of experiment: Assay for antiviral activity (plaque formation in HEL cells). It counts as cell-based, Varicella-zoster virus (VZV). The conditions noted are these: Human alphaherpesvirus 3, HEL, 120 h, read-out: Antiviral Activity IC₅₀ (µg/mL). On the procedure: (§1) The nucleoside derivative of the invention is further examined in antivairal activity to varicella-zoster virus (VZV) and cytotoxicity by the following tests.
(§2) Human embryonic lung fibroblast (HEL cell, ATCC CCL-137)
(§3) Culture: The cell is cultured in a minimum essential medium (MEM, Gibco) supplemented with 10% inactivated bovine fetal serum, 1% L-glutamine, and 0.3% sodium hydrogen carbonate.
(§4) • (a) Thymidine kinase-positive (TK⁺) strain OKA & YS • (b) Thymidine kinase-deficient (TK⁻) strain YS/R & 07/1
(§5) Cells cultured on a 96-well microtiter plate are inoculated with the virus at an input of 20 plaque formation units (PFU). The cultured cells are incubated at 37°C for 2 hours. Subsequently, remaining virus is removed, and the incubated cells are again cultured in a MEM medium to which are added the test compound, 10% inactivated bovine fetal serum, 1% L-glutamine, and 0.3% sodium hydrogen carbonate in duplicate. After five days culture, the microtiter plate is fixed by ethanol, stained by Giemsa staining method, and microscopically observed for measurement of number of plaques formed. The results are indicated by IC₅₀ (i.e., concentration at which the plaque formation by virus is inhibited by 50%.

Data set [5] has as its system TK⁺VZV YS strain. The data set is described as above. It counts as cell-based, Varicella-zoster virus (VZV). The conditions noted are these: Human alphaherpesvirus 3, HEL, 120 h, read-out: Antiviral Activity IC₅₀ (µg/mL). On the procedure:
as §1, §2, §3, §4, §5

The test system of data set [6] is TK⁻VZV 07/1 strain. Described as above. It counts as cell-based, Varicella-zoster virus (VZV). The conditions noted are these: Human alphaherpesvirus 3, HEL, 120 h, read-out: Antiviral Activity IC₅₀ (µg/mL). On the procedure: as §1, §2, §3, §4, §5
Data set [7] concerns TK⁺VZV OKA strain. Described as above. The conditions noted are these: Human alphaherpesvirus 3, HEL, 120 h, read-out: Antiviral Activity IC₅₀ (µg/mL). It counts as cell-based, Varicella-zoster virus (VZV). On the procedure:
as §1, §2, §3, §4, §5

The nature of data set [8]: Assay for cytotoxicity (cell growth, Coulter Counter). It counts as cell-based. The conditions noted are these: human; HEL cells; 3 days incubation; cell growth inhibited by 50%; read-out: Cytotoxicity CC₅₀. On the procedure: as §2, §3
HEL cellls of 3 x 10³ cells/well are seeded into a 96 well microtiter plate and allowed to proliferate in a MEM medium containing 10% inactivated bovine fetal serum at 37°C for 24 hours. Subsequently, the medium is changed into a MEM medium containing different concentrations of the tested compound, and then the incubation is continued for another 3 days. When monolayer cells are grown to 70%, number of cells is countered by Coulter Counter. The cytotoxicity is indicated by CC₅₀ (i.e., concentration at which the cell growth is inhibited by 50%.).

In the case of `Nc1nc2c(ncn2COCCO)c(=O)[nH]1` [Acyclovir], in data set [1], the “effectiveness to cytomegalovirus (CMV)” value is “not effective”. In addition, the “concentration showing inhibitory effect” value in data set [2] and in data set [3] was “less than 0.05 µL/mL” each time.
Regarding `Nc1ncnc2c1ncn2[C@@H]1O[C@H](COC2(c3ccccc3)c3ccccc3Oc3ccccc32)[C@@H](OC2(c3ccccc3)c3ccccc3Oc3ccccc32)[C@H]1OC1CCCCO1` (some centres unmarked) [Example 2, 2'-O-Tetrahydropyranyl-3',5'-O-di(9-phenylxanthenyl)adenosine], the IC50 was 2 µg/mL (≈ 2.31 µM) in data set [4], 1 µg/mL (≈ 1.16 µM) in data set [5], 0.8 µg/mL (≈ 0.926 µM) in data set [6] and 2 µg/mL (≈ 2.31 µM) in data set [7]. Further, in data set [8], the CC50 at 72 h is more than 50 mg/L.
